Experimental data taken from article PMC12339163, “Combining Plant Bioactives With Antibiotics for Enhanced Antibiofilm Activity Against Uropathogenic Staphylococcus spp. and Cytotoxicity Evaluation” (Advances in Pharmacological and Pharmaceutical Sciences, 2025).
Values after ≈ are worked out from the molar mass of the structure shown. Read-outs that look alike come from different tables or passages of the source.

Columns and labels:
S. aureus = assay: MIC and MBC, broth microdilution; format: cell-based, Staphylococcus aureus; conditions: Staphylococcus aureus, geometric mean, S. aureus (n = 3); for MIC: read-out: MIC; for MBC: read-out: MBC
Description: (§1) Seven clinical isolates of Staphylococcus spp. including 2 S. aureus, 3 S. saprophyticus, and 2 S. epidermidis were used. They were isolated from urine samples in our previous study. Two reference strains (S. aureus ATCC1026 and S. epidermidis ATCC35984) obtained from the American Type Culture Collection were also included. They were kept in the mixture of glycerol and Mueller Hinton Broth (MHB) (1:1) at −20°C, and the activation was achieved using the streak technique on Mueller Hinton agar (MHA) medium.
(§2) The MICs of ATBs and NPs were determined by the broth microdilution method as previously described. NPs and ATBs were, respectively, prepared at 4096 µg/mL and 512 µg/mL and serially diluted twofold with MHB in a 96-well microplate at a volume of 100 µL. Then, the wells were filled with 100 µL of inoculum (1.5 × 10^6 CFU/mL) to give final concentrations ranging from 1024 µg/mL to 0.5 µg/mL and 128 µg/mL to 0.062 µg/mL of NPs and ATBs, respectively. The microplates were incubated for 24 h at 37°C. Wells containing only bacterial inoculum were used as the negative control. After incubation, a volume of 40 µL of INT solution (0.2 mg/mL) was added to each well, and the microplate was incubated at 37°C for 30 min. Viable bacteria cells change the yellow dye of INT to a pink color. The MIC was considered as the lowest concentration of the sample at which there was no change in the coloration of the medium, corresponding to the complete inhibition of microbial growth.
(§3) All tests were performed in triplicate.

S. epidermidis biofilm [1] = assay: Biofilm inhibition assay (MBIC, MTT); format: cell-based, Staphylococcus epidermidis; conditions: Staphylococcus epidermidis, 24 h; geometric mean, S. epidermidis (n = 3)
Description: (§4) The biofilm formation inhibitory activity of NPs and ATBs was carried out according to the method previously described. A total of 100 µL of bacterial inoculum (1.5 × 10^6 CFU/mL) was used, and 100 µL of each sample was added to the microplate to achieve final concentrations ranging from 0.25 µg/mL to 128 µg/mL for ATBs and from 8 µg/mL to 1024 µg/mL for NPs. Then, the microplate was incubated at 37°C for 24 h. After incubation, the plates were gently emptied and washed three times with a phosphate buffer solution at pH 7.2. Then, the MTT solution (0.5 mg/mL) prepared in PBS was introduced into each well, and the microplate was further incubated at 37°C for 24 h. Untreated wells containing bacterial suspension and MHB supplemented with 1% glucose were considered positive controls, and wells containing only MHB+1% glucose without bacteria were used as blanks. After incubation, the MTT solution was aspirated, then 150 µL of DMSO was introduced to dissolve the formazan crystal formed by viable bacteria, and the optical density (OD) was measured at 570 nm using a microplate reader (VERSA-max). The percentage of biofilm inhibition was calculated using the formula below, and the minimal biofilm inhibitory concentration (MBIC) was recorded as the lowest concentration of NPs or ATBs that inhibited 100% of biofilm:(1) % biofilm inhibition=ODcontrol−ODblank−ODtest−ODblank/ODcontrol−ODblank×100.

S. aureus biofilm = assay: Biofilm inhibition assay (MBIC, MTT); format: cell-based, Staphylococcus aureus; conditions: Staphylococcus aureus, 24 h; geometric mean, S. aureus (n = 3)
Description: as §4

S. saprophyticus = assay: MIC and MBC, broth microdilution; format: cell-based, Staphylococcus saprophyticus; conditions: Staphylococcus saprophyticus, geometric mean, S. saprophyticus (n = 3); for MIC: read-out: MIC; for MBC: read-out: MBC
Description: as §1, §2, §3

S. epidermidis biofilm [2] = assay: Biofilm eradication assay (MBEC, MTT); format: cell-based, Staphylococcus epidermidis; conditions: Staphylococcus epidermidis, 24 h; geometric mean, S. epidermidis (n = 3)
Description: (§5) The determination of the biofilm eradication potential of NPs and ATBs was performed as previously described. Briefly, 100 µL of bacterial inoculum (1.5 × 10^6 CFU/mL) and 100 µL of MHB + 1% glucose were introduced into the microplate, incubated at 37°C for 24 h, and the microplate was gently emptied and washed three times with PBS. Then, 200 µL of ATBs or NPs at respective concentrations ranging from 8 to 1024 µg/mL and from 16 to 2048 µg/mL were incubated at 37°C for 24 h. Once incubation was completed, the microplate was processed as described above, and the percentage of biofilm eradication was calculated using the formula below. The minimal biofilm eradicating concentration (MBEC) was recorded as the lowest concentration of the test sample that reduces 100% of biofilm:(2) % biofilm eradication=ODcontrol−ODblank−ODtest−ODblank/ODcontrol−ODblank×100.

S. saprophyticus biofilm [3] = assay: Biofilm eradication assay (MBEC, MTT); format: cell-based, Staphylococcus saprophyticus; conditions: Staphylococcus saprophyticus, 24 h; geometric mean, S. saprophyticus (n = 3)
Description: as §5

[4] = system: planktonic cells of Staphylococcus aureus; assay: Checkerboard combination assay, planktonic cells; format: cell-based; conditions: Staphylococcus aureus, S. aureus, mean
Description: (§6) The checkerboard assay, as previously described, was used for the determination of the fractional inhibitory concentration index (FICI). Briefly, 50 µL of MHB was distributed into each well of a 96-well microplate. ATBs were serially diluted along the abscissa, and NPs were serially diluted along the ordinate. Then, 100 µL of bacterial inoculum (1.5 × 10^6 CFU/mL) was added to each well and incubated at 37°C for 24 h. The final concentration ranged from 0.125 to 128 µg/mL for ATBs and 4–512 µg/mL for NPs. After incubation, a volume of 40 µL of INT solution (0.2 mg/mL) was added to each well, and the microplate was incubated at 37°C for 30 min. The wells containing bacterial inoculum and MHB were used as a positive control, while wells containing only MHB + 1% glucose were used as a negative control and used as a blank. Viable bacteria cells change the yellow dye of INT to a pink color. The MICs were considered to be the lowest NP concentrations that prevented the color change medium. Subsequently, the FICI was calculated according to the formula FICI = (MIC of the ATBs in combination/MIC of the ATBs alone) + (MIC of a natural substance in combination/MIC of the natural substance alone). FICI values were interpreted as follows: synergy when FICI ≤ 0.5; additive when 0.5 < FICI ≤ 1; indifference when 1 < FICI ≤ 4; and antagonism when FICI > 4.

[5] = system: planktonic cells of Staphylococcus saprophyticus; assay: Checkerboard combination assay, planktonic cells; format: cell-based; conditions: S. saprophyticus, mean; for MIC: Staphylococcus saprophyticus
Description: as §6

S. saprophyticus biofilm [6] = assay: Biofilm inhibition assay (MBIC, MTT); format: cell-based, Staphylococcus saprophyticus; conditions: Staphylococcus saprophyticus, 24 h; geometric mean, S. saprophyticus (n = 3)
Description: as §4

Row | MIC (S. aureus) | MIC (S. saprophyticus) | MIC ([4]; 24 h, read-out: MIC alone, NPs) | MIC ([4]; read-out: MIC alone, NPs) | MIC ([5]; 24 h, read-out: MIC alone, NPs) | MIC ([5]; read-out: MIC alone, NPs) | MIC alone, NPs ([5]; listed as Ber) | MIC ([4]; 24 h, read-out: MIC alone, ATB) | MIC ([4]; read-out: MIC alone, ATB) | MIC ([5]; 24 h, read-out: MIC alone, ATB) | MIC ([5]; read-out: MIC alone, ATB) | Structure (SMILES) | MBC (S. aureus; natural products) | minimal effective concentration (S. epidermidis biofilm [1]) | minimal effective concentration (S. aureus biofilm) | MBC (S. saprophyticus; natural products) | minimal effective concentration (S. epidermidis biofilm [2]) | minimal effective concentration (S. saprophyticus biofilm [3]) | minimal effective concentration (S. saprophyticus biofilm [6]) | MBC (S. aureus; antibiotics) | MBC (S. saprophyticus; antibiotics)
1 | 299 µg/mL (≈ 1990 µM) | 341 µg/mL (≈ 2270 µM) | 299 µg/mL | 299 µg/mL | 341 µg/mL | 341 µg/mL | – | – | – | – | – | Cc1ccc(C(C)C)c(O)c1 [Thymol, thymol] | > 1020 µg/mL | 213 µg/mL | 341 µg/mL | > 1020 µg/mL | 107 µg/mL | 107 µg/mL | 128 µg/mL | – | –
2 | 139 µg/mL | 149 µg/mL | 139 µg/mL | 139 µg/mL | 213 µg/mL | 213 µg/mL | 298.66 µg/mL | – | – | – | – | COc1ccc2cc3[n+](cc2c1OC)CCc1cc2c(cc1-3)OCO2 [Berberine, berberine] | > 1020 µg/mL | – | 171 µg/mL | > 1020 µg/mL | 171 µg/mL | 171 µg/mL | 85.3 µg/mL | – | –
3 | 42.7 µg/mL (≈ 93.9 µM) | 64.7 µg/mL (≈ 142 µM) | – | – | – | – | – | 42.7 µg/mL | 42.7 µg/mL | 64.7 µg/mL | 64.7 µg/mL | Cc1nnc(SCC2=C(C(=O)O)N3C(=O)[C@@H](NC(=O)Cn4cnnn4)[C@H]3SC2)s1 [Cefazolin, cefazolin] | – | 8.66 µg/mL | 4.66 µg/mL | – | 10.7 µg/mL | 10.7 µg/mL | 8.53 µg/mL | > 128 µg/mL | > 128 µg/mL
4 | 427 µg/mL (≈ 2510 µM) | 427 µg/mL (≈ 2510 µM) | 427 µg/mL | 427 µg/mL | 427 µg/mL | 427 µg/mL | – | – | – | – | – | O=C(O)c1cc(O)c(O)c(O)c1 [Gallic acid, 3,4,5-trihydroxybenzoic acid] | > 1020 µg/mL | 512 µg/mL | 512 µg/mL | > 1020 µg/mL | 267 µg/mL | 299 µg/mL | 427 µg/mL | – | –
